Several values for one entry are separate records, joined by “and”; a condition that tells them apart may be missing. Equal entries are not always repeated. Structures can show the parent of a compound that is named as a salt.
Assays:
[1] = Octreotide pharmacokinetics after s.c. and oral delivery; details: for CL/F: po; for t1/2 1: first peak; for t1/2 2: second peak
Description: C prior to administration. […] Death is confirmed by cervical dislocation. […] Euthanasia is confirmed by cervical dislocation.
Pharmacokinetic analyses is carried out as follows.
Serum half-life (t1/2) is determined as follows.

[2] = test system: blood glucose; test: Ocular administration of insulin plus absorption enhancer, blood glucose in anesthetized rats; type: in vivo, rat (male Sprague-Dawley); details: for effect on blood glucose / ocular insulin absorption: 0.5% enhancer with 0.2% insulin eye drops; for Blood Glucose Concentration: 0.5% surfactant, insulin eye drops; for effect on ocular insulin absorption (alkyl chain length comparison): alkylmaltosides with insulin eye drops
[3] = test system: blood glucose; test: Ocular administration of glucagon plus surfactant, blood glucose in rats; type: in vivo, rat; details: for Blood Glucose Concentration: 0.5% surfactant, glucagon eye drops after insulin; for effect on ocular glucagon absorption / blood D-glucose: eye drops, 0.5% surfactant plus glucagon (30 μg)
[4] = Buccal fast-dispersing melatonin tablets in rabbits; details: for bioavailability: fast-disintegrating tablet, buccal
Description: Thereafter, the animals return to consciousness. At individual time point over a two hour period, 1 mL blood samples are collected from the central ear artery. […] All samples are stored at −70 °C until assaying for melatonin. Melatonin is measured using a commercial ELISA kit manufactured by GenWay Biotech Inc., San Diego, CA.

[5] = cited from earlier work
[6] = test system: blood glucose; test: Intranasal insulin with/without […] TDM, anesthesia-induced hyperglycemia model; type: in vivo, mouse
Description: Intranasal administration of drugs or agents are possible in animal models e.g., mice and rats, although the nasal opening in is very small. […] Hyperglycemic animals were induced by an intraperitoneal (IP) injection containing xylazine-ketamine and blood glucose levels were monitored over a period of time.

[7] = insulin alone intranasal, minus TDM

Question: With `C[C@@H](O)[C@@H]1NC(=O)[C@H](CCCCN)NC(=O)[C@@H](Cc2c[nH]c3ccccc23)NC(=O)[C@H](Cc2ccccc2)NC(=O)[C@@H](NC(=O)[C@H](N)Cc2ccccc2)CSSC[C@@H](C(=O)N[C@H](CO)[C@@H](C)O)NC1=O` (relative stereo) [Octreotide, L-Cysteinamide, D-phenylalanyl-L-cysteinyl-L-phenylalanyl-D-tryptophyl-L-lysyl-L-threonyl-N-[2-hydroxy-1-(hydroxymethyl)propyl]-, cyclic (2→7)-disulfide; [R—(R*, R*)]acetate salt] as the molecule, how does the CL/F ([1]; mouse, in vivo, 1 mg/kg, oral 3.0% DDM) read?
Answer: The CL/F was 54900 mL/min.

Question: What about the CL/F ([1]; mouse, in vivo, 1 mg/kg, oral […] DDM) of the same molecule?
Answer: The CL/F was 28400 mL/min.

Question: What about the half-life ([1]; mouse, in vivo, sc, 1 mg/kg) of the same molecule?
Answer: Its half-life is 41.2 min.

Question: What about the “t1/2 1” value ([1]; oral 0.5% DDM, 1 mg/kg) of the same molecule?
Answer: The value was 1.56 min.

Question: What about the “t1/2 2” value ([1]; oral 0.5% DDM, 1 mg/kg) of the same molecule?
Answer: Its value is 52.50 min.

Question: What about the AUC1 ([1]; oral 0.5% DDM, 1 mg/kg) of the same molecule?
Answer: Its AUC1 is 353.03 ng/mL/min.

Question: What about the AUC2 ([1]; oral 0.5% DDM, 1 mg/kg) of the same molecule?
Answer: The AUC2 was 901.04 ng/mL/min.

Question: What about the t1/2 ([1]; oral 0.5% DDM, 1 mg/kg) of the same molecule?
Answer: Its t1/2 is 52.1 min.

Question: What about the t1/2 ([1]; oral 0.5% DDM, 1 mg/kg, listed as octreotide) of the same molecule?
Answer: Its t1/2 is 53.1 min and 52.1 min.

Question: What about the “Cmax1 higher than Cmax2” value ([1]; oral 0.5% Intravail) of the same molecule?
Answer: Its value is “more than 2 fold”.

Question: And the “t1/2 1” value ([1]; oral 3.0% DDM, 1 mg/kg)?
Answer: The value was 1.33 min.

Question: And the “t1/2 2” value ([1]; oral 3.0% DDM, 1 mg/kg)?
Answer: The value was 22.28 min.

Question: And the AUC1 ([1]; oral 3.0% DDM, 1 mg/kg)?
Answer: The AUC1 was 21.50 ng/mL/min.

Question: What about the AUC2 ([1]; oral 3.0% DDM, 1 mg/kg) of the same molecule?
Answer: Its AUC2 is 119.74 ng/mL/min.

Question: What about the t1/2 ([1]; oral 3.0% DDM, 1 mg/kg) of the same molecule?
Answer: Its t1/2 is 23.6 min.

Question: And the “t1/2 1” value ([1]; oral […] DDM, 1 mg/kg)?
Answer: Its value is 0.96 min.

Question: What about the AUC1 ([1]; oral […] DDM, 1 mg/kg) of the same molecule?
Answer: Its AUC1 is 97.80 ng/mL/min.

Question: And the AUC2 ([1]; oral […] DDM, 1 mg/kg)?
Answer: Its AUC2 is 132.90 ng/mL/min.

Question: And the t1/2 ([1]; oral […] DDM, 1 mg/kg)?
Answer: The t1/2 was 25.8 min.

Question: What about the “t1/2 1” value ([1]; s.c., 1 mg/kg) of the same molecule?
Answer: Its value is 2.04 min.

Question: And the “t1/2 2” value ([1]; s.c., 1 mg/kg)?
Answer: The value was 39.15 min.

Question: What about the AUC1 ([1]; s.c., 1 mg/kg) of the same molecule?
Answer: Its AUC1 is 38.39 ng/mL/min.

Question: And the AUC2 ([1]; s.c., 1 mg/kg)?
Answer: The AUC2 was 251.73 ng/mL/min.

Question: For `CCCCCCCCCCO[C@@H]1O[C@H](CO)[C@@H](O[C@H]2O[C@H](CO)[C@@H](O)[C@H](O)[C@H]2O)[C@H](O)[C@H]1O` [Decyl Maltoside, decyl-β-D-maltoside], which “effect on blood glucose / ocular insulin absorption” value [2] is on record?
Answer: The value was “maintained in the normoglycemic (80-120 mg/dl) or near-normoglycemic (120-160 mg/dl) range”.

Question: And the “Blood Glucose Concentration” value ([2]; 80 min)?
Answer: The value was 110 mg/dL.

Question: What about the “Blood Glucose Concentration” value ([2]; 90 min) of the same molecule?
Answer: Its value is 120 mg/dL.

Question: And the “Blood Glucose Concentration” value ([2]; 100 min)?
Answer: The value was 92 mg/dL.

Question: And the “Blood Glucose Concentration” value ([2]; 110 min)?
Answer: Its value is 81 mg/dL.

Question: What about the “Blood Glucose Concentration” value ([2]; 120 min) of the same molecule?
Answer: The value was 87 mg/dL.

Question: And the “effect on ocular insulin absorption (alkyl chain length comparison)” value (“effect … (alkyl chain length comparison)” for short) [2]?
Answer: Its value is “less absorption enhancing activity”.

Question: What about the “Blood Glucose Concentration” value ([3]; 130 min) of the same molecule?
Answer: Its value is 95 mg/dL.

Question: What about the “Blood Glucose Concentration” value ([3]; 140 min) of the same molecule?
Answer: Its value is 99 mg/dL.

Question: And the “Blood Glucose Concentration” value ([3]; 180 min)?
Answer: The value was 180 mg/dL.

Question: And the “effect on ocular glucagon absorption / blood D-glucose” value [3]?
Answer: Its value is “increase significantly”.

Question: For `CCCCCCCCCCCCCO[C@@H]1O[C@H](CO)[C@@H](O[C@H]2O[C@H](CO)[C@@H](O)[C@H](O)[C@H]2O)[C@H](O)[C@H]1O` [Tridecyl Maltoside, tridecyl-β-D-maltoside], which “effect on blood glucose / ocular insulin absorption” value [2] is on record?
Answer: The value was “effective as absorption enhancers”.

Question: What about the “Blood Glucose Concentration” value ([2]; 40 min) of the same molecule?
Answer: The value was 100 mg/dL.

Question: What about the “Blood Glucose Concentration” value ([2]; 50 min) of the same molecule?
Answer: The value was 87 mg/dL.

Question: What about the “Blood Glucose Concentration” value ([2]; 80 min) of the same molecule?
Answer: The value was 79 mg/dL.

Question: And the “Blood Glucose Concentration” value ([2]; 90 min)?
Answer: The value was 85 mg/dL.

Question: And the “Blood Glucose Concentration” value ([2]; 100 min)?
Answer: The value was 76 mg/dL.

Question: And the “Blood Glucose Concentration” value ([2]; 110 min)?
Answer: Its value is 74 mg/dL.

Question: And the “Blood Glucose Concentration” value ([2]; 120 min)?
Answer: Its value is 75 mg/dL.

Question: What about the “effect on ocular insulin absorption” value ([2]; […] enhancer with insulin eye drops) of the same molecule?
Answer: Its value is “sustained for the two hour time course of the experiment”.

Question: What about the “effect … (alkyl chain length comparison)” value [2] of the same molecule?
Answer: Its value is “more effective”.

Question: And the “Blood Glucose Concentration” value ([3]; 130 min)?
Answer: Its value is 82 mg/dL.

Question: What about the “effect on ocular glucagon absorption / blood D-glucose” value [3] of the same molecule?
Answer: Its value is “increase significantly”.

Question: Which “effect on blood glucose / ocular insulin absorption” value [2] does the source give for `CCCCCCCOC1O[C@H](CO)[C@@H](O)[C@H](O)[C@H]1O` (stereo partly drawn) [heptylglucoside, heptylglucopyranoside] here?
Answer: The value was “ineffective”.

Question: For `CCCCCCOC1O[C@H](CO)[C@@H](O)[C@H](O)[C@H]1O` (stereo partly drawn) [hexylglucoside, Hexylglucopyranoside], which “effect on blood glucose / ocular insulin absorption” value [2] is on record?
Answer: Its value is “ineffective”.

Question: With `COc1ccc2[nH]cc(CCNC(C)=O)c2c1` [melatonin, 5-methoxy-N-acetyltryptamine] as the molecule, how does the bioavailability ([4]; with 1% to 2% alkylsaccharide) read?
Answer: The bioavailability was “at least 75%”.

Question: What about the bioavailability ([4]; without alkylsaccharide) of the same molecule?
Answer: Its bioavailability is “less than 50%”.

Question: What about the “time to maximal concentration vs tablets without alkylsaccharide” value ([4]; with alkylsaccharide) of the same molecule?
Answer: Its value is “approximately one half the time”.

Question: And the mean elimination half-life ([5]; human, in vivo)?
Answer: Its mean elimination half-life is “roughly 45 minutes”.

Question: What about the absolute bioavailability ([5]; oral tablets, normal healthy volunteers (DeMuro et al.)) of the same molecule?
Answer: Its absolute bioavailability is “approximately 15%”.

Question: And the “oral bioavailability (estimated)” value ([5]; oral)?
Answer: Its value is 30-50%.

Question: For `CCCCCCCCCOC1O[C@H](CO)[C@@H](O)[C@H](O)[C@H]1O` (stereo partly drawn) [nonylglucoside, nonylglucopyranoside], which “effect on blood glucose / ocular insulin absorption” value [2] is on record?
Answer: Its value is “effectively stimulated insulin absorption”.

Question: And the Blood Glucose ([2]; insulin eye drops + 0.5%, reduced level, time not given)?
Answer: Its Blood Glucose is 150 mg/dL.

Question: And the Blood Glucose ([2]; insulin eye drops + 0.5%, starting level)?
Answer: Its Blood Glucose is 297 mg/dL.

Question: Which “effect … (alkyl chain length comparison)” value [2] does the source give for `CCCCCCCCO[C@@H]1O[C@H](CO)[C@@H](O[C@H]2O[C@H](CO)[C@@H](O)[C@H](O)[C@H]2O)[C@H](O)[C@H]1O` [octyl maltoside, Octyl-β-D-maltoside] here?
Answer: Its value is “less absorption enhancing activity”.

Question: Which Blood Glucose ([2]; insulin eye drops + 0.5%, 120 min) does the source give for decylsucrose here?
Answer: The Blood Glucose was 164 mg/dL.

Question: And the Blood Glucose ([2]; insulin eye drops + 0.5%, time 0)?
Answer: Its Blood Glucose is 313 mg/dL.

Question: With dodecylsucrose [Dodecyl Sucrose] as the molecule, how does the “Blood Glucose Concentration” value ([2]; 40 min) read?
Answer: Its value is 120 mg/dL.

Question: What about the “Blood Glucose Concentration” value ([2]; 90 min) of the same molecule?
Answer: Its value is 86 mg/dL.

Question: What about the Blood Glucose ([2]; insulin eye drops + […], 120 min) of the same molecule?
Answer: The Blood Glucose was 150 mg/dL.

Question: What about the Blood Glucose ([2]; insulin eye drops + […], time 0) of the same molecule?
Answer: Its Blood Glucose is 335 mg/dL.

Question: What about the “Blood Glucose Concentration” value ([3]; 130 min) of the same molecule?
Answer: Its value is 111 mg/dL.

Question: And the “Blood Glucose Concentration” value ([3]; 140 min)?
Answer: Its value is 143 mg/dL.

Question: And the “Blood Glucose Concentration” value ([3]; 150 min)?
Answer: The value was 202 mg/dL.

Question: What about the “Blood Glucose Concentration” value ([3]; 160 min) of the same molecule?
Answer: The value was 247 mg/dL.

Question: What about the “Blood Glucose Concentration” value ([3]; 170 min) of the same molecule?
Answer: Its value is 242 mg/dL.

Question: What about the “Blood Glucose Concentration” value ([3]; 180 min) of the same molecule?
Answer: The value was 234 mg/dL.

Question: What about the “Blood Glucose Concentration” value ([3]; 190 min) of the same molecule?
Answer: Its value is 211 mg/dL.

Question: What about the “effect on ocular glucagon absorption / blood D-glucose” value [3] of the same molecule?
Answer: Its value is “increase significantly”.

Question: With insulin (Humalog) as the molecule, how does the “lowest blood glucose level” value ([6]; insulin + […] TDM intranasal, about 60 minute time point (about 30 min after insulin)) read?
Answer: Its value is “about 80 mg/dl”.

Question: What about the blood glucose level ([6]; insulin + […] TDM intranasal, from about 75 minute time point) of the same molecule?
Answer: Its blood glucose level is 80 to 100 mg/dL.

Question: For insulin: insulin, which “return of blood glucose to normoglycemic levels” value [6, 7] is on record?
Answer: The value was “never return to normoglycemic levels”.

Question: What about the “time after insulin administration at which blood glucose starts to decline” value [6, 7] of the same molecule?
Answer: Its value is “about 110 minutes”.

Question: What about the “time mark at which blood glucose starts to decline” value [6, 7] of the same molecule?
Answer: Its value is ~120 min.

Question: With regular porcine insulin as the molecule, how does the “effect on blood D-glucose” value ([2]; 0.2% in saline only, no enhancer, eye drops) read?
Answer: The value was “remained elevated”.

— US20260364175A1, “COMPOSITIONS FOR DRUG ADMINISTRATION” (Aegis Therapeutics, LLC, priority 2018, published 2026)
